Patent US8633226B2, “Piperidinyl derivative as a modulator of chemokine receptor activity” (Bristol-Myers Squibb Company, priority 2008, dated 2014)
pKi: −log10 of the molar value.

Tests used:
[1] = In vitro metabolism assay, human liver microsomes, Assay Conditions A; assay type: in vitro ADME; details: 0.5 μM compound, 10 minutes, 37° C.
Procedure: Test compound is received as a 3.5 mM stock solution in 100 percent DMSO. Compound is diluted to create a 50 μM acetonitrile (ACN) solution containing 1.4% DMSO, which is then used as a 100× stock for incubation with microsomes. Each compound is tested in duplicate separately in each of three species in the Metabolic Stability-Human, Rat, and Mouse assay suite or as individual species in the Metabolic Stability-Dog or Metabolic Stability-Monkey suites. Compound, NADPH and liver microsome solutions are combined for incubation in three steps:
152 μL of liver microsome suspension, protein concentration of 1.1 mg/mL in 100 mM NaPi, pH 7.4, 6.6 mM MgCl2 buffer, is pre-warmed at 37° C.
• 1) 1.7 μL of 50 μM compound (98.6% ACN, 1.4% DMSO) is added to the same tube and pre-incubated at 37° C. for 5 minutes. • 2) The reaction is initiated by the addition of 17 μL of pre-warmed 10 mM NADPH solution in 100 mM NaPi, pH 7.4. • 3) Reaction components are mixed well, and 75 μL are immediately transferred into 150 μl quench/stop solution (zero-time point, T0). Reactions are incubated at 37° C. for 10 minutes and then an additional 75 μL aliquot is transferred into 150 μL quench solution. Acetonitrile containing 100 μM DMN (a UV standard for injection quality control), is used as the quench solution to terminate metabolic reactions. • 4) Quenched mixtures are centrifuged at 1500 rpm (˜500×g) in an Allegra X-12 centrifuge, SX4750 rotor (Beckman Coulter Inc., Fullerton, Calif.) for fifteen minutes to pellet denatured microsomes. A volume of 90 μL of supernatant extract, containing the mixture of parent compound and its metabolites, is then transferred to a separate 96-well plate for UV-LC/MS-MS analysis to determine the percent of parent compound that is remaining in the mixture. • 5)

[2] = biological target: Human CCR1 (Homo sapiens (Human), UniProt P32246); assay: Human CCR1 THP-1 binding assay; details: [125I]-MIP-1α competition, THP-1 cells
Human CCR1, sequence (P32246 whole entry): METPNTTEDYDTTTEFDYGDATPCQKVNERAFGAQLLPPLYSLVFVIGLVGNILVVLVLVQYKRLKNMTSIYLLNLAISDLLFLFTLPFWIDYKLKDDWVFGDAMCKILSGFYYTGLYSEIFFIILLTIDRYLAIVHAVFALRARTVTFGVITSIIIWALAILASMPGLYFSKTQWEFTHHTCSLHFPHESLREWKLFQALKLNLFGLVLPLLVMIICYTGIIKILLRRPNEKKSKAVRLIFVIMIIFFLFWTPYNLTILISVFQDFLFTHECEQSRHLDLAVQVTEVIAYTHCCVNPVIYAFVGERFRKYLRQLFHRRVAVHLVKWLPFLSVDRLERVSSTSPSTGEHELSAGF
Procedure: For radioligand competition studies, a final concentration of 1×10^5 THP-1 monocytic leukemia cells are combined with 100 μg of LS WGA PS beads (Amersham, Cat.#: RPNQ 0260) in 40 μL of assay buffer (RPMI 1640 without phenol red, 50 mM HEPES, 5 mM MgCl2, 1 mM CaCl2, 0.1% BSA). The THP-1 cell/bead mixture was added to each well of a 384-well assay plate (PerkinElmer, Cat. #:6007899) containing test compound in 3-fold serial dilution, with final concentrations ranging from 8 μM to 0.14 nM. A final concentration of 0.1 nM [^125I]-MIP-1α (PerkinElmer, Cat. #NEX298) in 20 μL assay buffer was added to the reaction. Unlabeled MIP-1α was added in excess to some wells to determine non-specific binding. Sealed assay plates were incubated at room temperature for 12 h then analyzed by LEADseeker™.
The competition data of the test compound over a range of concentrations is plotted as percentage inhibition of radioligand specifically bound in the absence of test compound (percent of total signal). After correcting for non-specific binding, IC50 values are determined. The IC50 value is defined as the concentration of test compound needed to reduce [^125I]-MIP-1α specific binding by 50% and is calculated using the four parameter logistic equation to fit the normalized data. The Ki values are determined by application of the Cheng-Prusoff equation to the IC50 values, where Ki=IC50/(1+ligand concentration/Kd). The Kd of [^125I]-MIP-1α in THP-1 cells is 0.1 nM. Each experiment was run in duplicate.

Row | SMILES | Human Liver Microsomal Metabolism % remaining (Assay Conditions A) [1] | pKi [2]
1 | CC(C)[C@@H](NC(=O)C1CCCC1)C(=O)N1CC[C@](O)(c2ccc(Cl)cc2)C(C)(C)C1 [#460] | 47% | 9.15
2 | CC(C)CC(=O)N[C@@H](C(=O)N1CC[C@](O)(c2ccc(Cl)cc2)C(C)(C)C1)C(C)C [#466] | 67% | 8.59
3 | CC(C)[C@@H](NC(=O)CC(C)(C)O)C(=O)N1CC[C@](O)(c2ccc(Cl)cc2)C(C)(C)C1 [#1356] | 100% (A)/100% (B) | 8.43
4 | CC(C)[C@@H](NC(=O)NCC(C)(C)O)C(=O)N1CC[C@](O)(c2ccc(Cl)cc2)C(C)(C)C1 [Compound I] | – | 9.15
